PMC9554468, “Assessing potency and binding kinetics of soluble adenylyl cyclase (sAC) inhibitors to maximize therapeutic potential” (Frontiers in Physiology, 2022)
“And” between values parts separate entries of the source, which are not always exact repeats. Identical values can stand only once.

Biological target: T1, sAC in 4-4 cells (HEK293 cells that stably overexpress sACt) (Rattus norvegicus, UniProt Q9Z286)
T1 construct: HEK293 cells that stably overexpress sACt; expressed in transfected cells
T1 sequence (Q9Z286 1-469 limits assumed): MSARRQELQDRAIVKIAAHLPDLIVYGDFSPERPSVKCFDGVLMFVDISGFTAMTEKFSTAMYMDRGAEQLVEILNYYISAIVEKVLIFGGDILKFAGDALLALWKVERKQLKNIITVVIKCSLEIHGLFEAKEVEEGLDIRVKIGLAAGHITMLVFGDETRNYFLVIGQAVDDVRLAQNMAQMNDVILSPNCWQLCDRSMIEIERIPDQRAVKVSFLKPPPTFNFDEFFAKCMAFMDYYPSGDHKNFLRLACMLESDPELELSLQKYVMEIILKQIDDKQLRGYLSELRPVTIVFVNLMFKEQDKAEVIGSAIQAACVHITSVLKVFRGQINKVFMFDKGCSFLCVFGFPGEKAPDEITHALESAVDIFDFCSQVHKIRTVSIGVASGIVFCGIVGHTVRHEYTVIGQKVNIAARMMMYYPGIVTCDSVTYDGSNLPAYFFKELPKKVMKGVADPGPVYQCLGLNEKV
Experiment: cellular adenylyl cyclase activity assay (cAMP accumulation) in sAC overexpressing 4-4 cells
Assay type: cell-based, human
Conditions: 10 min preincubation, 500 μM IBMX 5 min, 37°C
Description: For the assay, 1 × 10^5 4-4 cells were seeded in each well of a 24-well plate and incubated for 24 h in DMEM+10% FBS media at 37°C/5% CO2. One hour before the assay the media was aspirated and replaced with 300 μL fresh media. Cells were preincubated with sAC inhibitor at the indicated concentrations or vehicle (0.7% DMSO) for 10 min at 37°C. Intracellular cAMP accumulation was initiated by addition of 500 μM IBMX (Sigma-Aldrich), and cAMP was allowed to accumulate for 5-min. Intracellular cAMP was quantitated using the Direct cAMP Elisa kit (Enzo Life Sciences) following manufacturer’s instructions. GraphPad Prism (www.graphpad.com, version 9.3.1) was used for curve fitting of the concentration-response data and determination of IC50 values.
In addition to how tightly an inhibitor binds its target, efficacy against an intracellular enzyme target is also determined by factors that are present only in the context of cells, such as membrane permeability, non-specific protein binding and compound stability in media and inside cells.

SMILES	IC50
Cn1cc(Cc2ccccc2OCCN2CCOCC2)c(-c2cc(Cl)nc(N)n2)n1 [TDI-11155]	15.7 nM and 16 nM
COC(=O)[C@@H]1COCCN1CCOc1ccccc1Cc1cn(C(F)F)nc1-c1cc(Cl)nc(N)n1 [TDI-11893]	19.4 nM and 19 nM
COC(=O)[C@H]1COCCN1CCOc1ccccc1Cc1cn(C(F)F)nc1-c1cc(Cl)nc(N)n1 [TDI-11891]	2.3 nM
